Data from paper PMC3252375 (PLoS Pathogens, 2012).
Like-named read-outs stand apart in the source and are kept apart here.

How the values were obtained:
[1] = system: LncP (Legionella nucleotide carrier Protein)
[2] = system: LncP (Legionella nucleotide carrier Protein); format: biochemical, Legionella pneumophila

SMILES: Nc1ncnc2c1ncn2[C@@H]1O[C@H](COP(=O)(O)OP(=O)(O)OP(=O)(O)O)[C@@H](O)[C@H]1O [ATP]
- Km [1]: 190 ± 37 µM

SMILES: Nc1nc2c(ncn2[C@@H]2O[C@H](COP(=O)(O)OP(=O)(O)OP(=O)(O)O)[C@@H](O)[C@H]2O)c(=O)[nH]1 [GTP]
- Km [2]: 183 ± 32 µM
